Read-outs that look alike come from different tables or passages of the source.
Assays:
rat molars = experiment: ICG-assisted NIR dental imaging with in vivo mouthwash in living rats; set-up: species or system Sprague Dawley rats; details: rat model
Procedure: Self-breed Sprague Dawley rats, including eight postnatal day 31 (P31) and two P21 rats for erupted molars and sixteen P14 rats for unerupted molars, were utilized. To simulate the mouthwash with living rats, 10 μL ICG solution (1 mg/ml) was pipetted into the mouth of two P31 rats in vivo, and the rats were euthanized after 2 minutes. The other two P21 went through the same in vivo mouthwash procedure and euthanized after 1 minute. In addition, the mandibles were dissected from another two P31 rats directly after euthanasia, then washed with 10 μL ICG (1 mg/ml) solution ex vivo for 10 minutes. For the subcutaneous injection, every two P31 rats were euthanized at each time points 10 minutes and 24 hours, for the ICG injection on the back (5 mg/kg body weight). For the unerupted molars, two rats were sacrificed 1 minute after in vivo mouthwash, and the same for the erupted molars. […]
The imaging system is depicted in FIG. 1(A). A 785 nm laser source shined to the mandibles with fiber and filters, a NIR camera received the videos, and videos were recorded by computer. […]
Meanwhile, endoscopic imaging provided clearer morphologies of the first and second molars than wide-field imaging. […] As described in previous work,^29, 30 the intensity-mean difference Dmean_diff (IMD) was used as the image contrast for the quantitative evaluation of the target and background. […]

[1] = system: rat molars (erupted P31, unerupted P14); experiment: ICG-assisted NIR dental imaging after subcutaneous injection in rat model; format: in vivo, Sprague Dawley rats
Procedure: Self-breed Sprague Dawley rats, including eight postnatal day 31 (P31) and two P21 rats for erupted molars and sixteen P14 rats for unerupted molars, were utilized. To simulate the mouthwash with living rats, 10 μL ICG solution (1 mg/ml) was pipetted into the mouth of two P31 rats in vivo, and the rats were euthanized after 2 minutes. The other two P21 went through the same in vivo mouthwash procedure and euthanized after 1 minute. In addition, the mandibles were dissected from another two P31 rats directly after euthanasia, then washed with 10 μL ICG (1 mg/ml) solution ex vivo for 10 minutes. For the subcutaneous injection, every two P31 rats were euthanized at each time points 10 minutes and 24 hours, for the ICG injection on the back (5 mg/kg body weight). For the unerupted molars, two rats were sacrificed 1 minute after in vivo mouthwash, and the same for the erupted molars. To study concentration effect on imaging, 0.1, 0.5, 1, and 5 mg/kg of ICG were injected into eight P14 rats (two rats for each dosage, and euthanized for each concentration 4 hours after injection). For P14 rats to study imaging windows, two rats were euthanized at 10 minutes, 4 hours and 48 hours for posting ICG injection (5 mg/kg) respectively.
The imaging system is depicted in FIG. 1(A). A 785 nm laser source shined to the mandibles with fiber and filters, a NIR camera received the videos, and videos were recorded by computer. The mandibles were then extracted and imaged using ICG-assisted endoscopic NIR dental imaging, as described in previous publications.^29-31 In the endoscopic imaging, an output fiber was connected to the endoscope with a camera.^30 All experiments were approved by the Institutional Animal Care and Use Committee (IACUC) of Louisiana State University (Protocol #16-117) and followed the ethical guidelines of animal care.
Meanwhile, endoscopic imaging provided clearer morphologies of the first and second molars than wide-field imaging. The lingual and occlusal cusps of the molars could be easily distinguished, especially for the mouthwash treatment (FIG. 1(B)). As described in previous work,^29, 30 the intensity-mean difference Dmean_diff (IMD) was used as the image contrast for the quantitative evaluation of the target and background. To further reveal the efficiency of the mouthwash and local injection, a sampling line (yellow lines in FIG. 1) covering both molar regions and the surrounding tissues was used to calculate the image contrast of the molar and surrounding tissues.

[2] = system: rat molars (erupted P31, unerupted P14); details: rat model, previous work, cited from earlier work

CC1(C)C(/C=C/C=C/C=C/C=C2\N(CCCCS(=O)(=O)O)c3ccc4ccccc4c3C2(C)C)=[N+](CCCCS(=O)(=O)[O-])c2ccc3ccccc3c21 [ICG, indocyanine green]
time to achieve the same image contrast (rat molars): 1 to 2 min
visibility of dental structures ([1]; erupted molars (P31 rat), 24 hours after ICG injection): no dental structures could be observed
visibility of dental structures ([1]; erupted molars (P31 rat), subcutaneous injection, imaging window 10 minutes): clearly observable
minimal dye dosage to achieve recognizable anatomical imaging ([1]; subcutaneous injection, P14 rats (FIG. 9)): 0.1 mg/kg (body weight)
visibility of dental structures ([1]; unerupted molars (P14 rats), imaging window 48 hours): could still be observed
imaging window ([2]; erupted molars): 4 h
imaging window ([2]; unerupted molar): about 96 hours

From US12324568B2, “Mouthwash to deliver dyes for dental imaging” (BOARD OF SUPERVISORS OF LOUISIANA STATE UNIVERSITY AND …, priority 2020, dated 2025)
